This is an account of results in patent publication US10544149B2, “Bicyclic alkyne derivatives and uses thereof” (Agency for Science, Technology and Research, priority 2013, dated 2020).

Some results are limits rather than exact numbers.

What is called IC50 is the concentration at which inhibition is half-maximal. High values mean weaker potency, low ones greater potency. Usually melting point stands for the temperature, or range, at which the solid turns liquid.

Data set [1] concerns TNF production by macrophage. The conditions noted are these: TLR agonist stimulation, dose dependant; cited from earlier work.
For another data set, the target named is MNK1 (Homo sapiens, UniProt Q9BUB5). The data set can be described thus: MNK1 enzymatic assay. The format is biochemical.
The target of the next data set is MNK2 (Homo sapiens, UniProt Q9HBH9). The data set can be described thus: MNK2 enzymatic assay. Format: biochemical.
Data set [2] deals with eIF4e phosphorylation in Hela cell line. As to the kind of experiment: eIF4e phosphorylation inhibition in Hela cell line. To be noted: Homo sapiens, cellular. The format is cell-based.

Chain of MNK2 (Q9HBH9 whole entry): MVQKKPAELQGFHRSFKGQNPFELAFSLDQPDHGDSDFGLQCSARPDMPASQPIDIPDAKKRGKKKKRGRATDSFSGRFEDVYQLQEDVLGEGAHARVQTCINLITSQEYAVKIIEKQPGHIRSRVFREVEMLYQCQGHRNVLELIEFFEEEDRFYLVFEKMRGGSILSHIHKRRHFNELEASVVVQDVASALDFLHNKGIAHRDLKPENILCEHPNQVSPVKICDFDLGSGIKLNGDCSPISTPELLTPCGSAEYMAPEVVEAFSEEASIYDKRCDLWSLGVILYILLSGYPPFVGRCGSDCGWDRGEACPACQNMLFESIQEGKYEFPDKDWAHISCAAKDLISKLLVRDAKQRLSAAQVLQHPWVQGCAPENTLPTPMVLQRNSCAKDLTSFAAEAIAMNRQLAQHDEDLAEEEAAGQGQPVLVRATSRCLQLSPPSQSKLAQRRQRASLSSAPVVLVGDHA
Chain of MNK1 (Q9BUB5 whole entry): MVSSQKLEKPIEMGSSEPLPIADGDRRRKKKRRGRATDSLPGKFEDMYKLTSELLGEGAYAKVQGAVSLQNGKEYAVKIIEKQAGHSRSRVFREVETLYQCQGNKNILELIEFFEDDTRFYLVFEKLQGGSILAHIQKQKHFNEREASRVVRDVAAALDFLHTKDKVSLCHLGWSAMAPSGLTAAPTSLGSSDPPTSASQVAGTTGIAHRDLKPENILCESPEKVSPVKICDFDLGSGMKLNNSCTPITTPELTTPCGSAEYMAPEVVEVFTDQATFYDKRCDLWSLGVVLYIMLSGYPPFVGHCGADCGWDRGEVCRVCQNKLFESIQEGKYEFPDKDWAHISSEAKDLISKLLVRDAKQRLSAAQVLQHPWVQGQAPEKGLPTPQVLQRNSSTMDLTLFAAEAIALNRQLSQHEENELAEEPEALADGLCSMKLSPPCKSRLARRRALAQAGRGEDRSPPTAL

In the case of `Nc1ncnc2n[nH]c(Nc3ccc(F)cc3)c12` [CGP57380], the “production / release of TNF” value in data set [1] is “inhibits”.

On to `O=C(c1ccc(-c2ccc3ncc(C#Cc4ccnc5[nH]ccc45)n3c2)cc1)N1CCNCC1` [Example 110, (4-(3-((1H-pyrrolo[2,3-b]pyridin-4-yl)ethynyl)imidazo[1,2-a]pyridin-6-yl)phenyl)(piperazin-1-yl)methanone], for which the melting point was in the range of 242 to 245 °C. On MNK1, this compound had an IC50 of less than 0.5 µM. At MNK2, the IC50 was less than 0.5 µM. This compound displayed an IC50 in data set [2] of less than 5 µM.

For the compound `O=C(c1ccc(-c2ccn3ncc(C#Cc4ccncc4)c3n2)cc1)N1CCOCC1` [Example 114, morpholino(4-(3-(pyridin-4-ylethynyl)pyrazolo[1,5-a]pyrimidin-5-yl)phenyl)methanone], the melting point lay in the range of 206 to 209 °C. Further, at MNK1, the IC50 was less than 0.5 µM. The compound further yielded a 50% inhibitory concentration (IC50) against MNK2 of less than 0.5 µM. For the same compound, the concentration for half-maximal inhibition (IC50) in data set [2] is less than 5 µM.

`O=C(c1ccc(-c2ccn3ncc(C#Cc4ccncc4)c3n2)cc1)N1CCNCC1` [Example 115, piperazin-1-yl(4-(3-(pyridin-4-ylethynyl)pyrazolo[1,5-a]pyrimidin-5-yl)phenyl)methanone] had a melting point of 120 to 136 °C. The IC50 against MNK1 was less than 0.5 µM. This compound also displayed a 50% inhibitory concentration (IC50) against MNK2 of less than 0.5 µM. Moreover, the 50% inhibitory concentration (IC50) in data set [2] was less than 5 µM.

`Cc1cnccc1C#Cc1cnn2ccc(-c3ccc(C(=O)N4CCOCC4)cc3)nc12` [Example 116, (4-(3-((3-methylpyridin-4-yl)ethynyl)pyrazolo[1,5-a]pyrimidin-5-yl)phenyl)(morpholino)methanone]: the melting point was 233 to 236 °C. This compound also yielded an IC50 at MNK1 of less than 0.5 µM. Also, the 50% inhibitory concentration (IC50) at MNK2 was less than 0.5 µM. Also, the IC50 in data set [2] is less than 5 µM.

Turning to `Nc1ncc(C#Cc2cnc3ccc(-c4ccc(C(=O)N5CCOCC5)cc4)nn23)s1` [Example 121, (4-(3-((2-aminothiazol-5-yl)ethynyl)imidazo[1,2-b]pyridazin-6-yl)phenyl) (morpholino)methanone], the melting point is 245 to 254 °C. On MNK1, this compound showed a half-inhibitory concentration (IC50) of less than 0.5 µM. The same compound showed a 50% inhibitory concentration (IC50) against MNK2 of less than 0.5 µM. In addition, in data set [2], the IC50 was less than 5 µM.
